{
  "source": "patent US20240254095A1",
  "about": "“NMDA Receptor Antagonist and Use Thereof” (priority 2021, published 2024)",
  "note": "“Also recorded” adds a separate entry of the source. Where a name gives a salt, the structure may show the parent alone.",
  "data": [
    {"tested_on": "mice", "assay": "High dose toxicity test (behavior of mice after i.p. administration)", "type": "in vivo", "details": "medium dose 100 mg/kg body weight, observed about one hour, hydrochloride, 100 mg/kg", "description": "• 1. Experiments were performed in a quiet environment where animals needed to be weighed and acclimatized in the laboratory room for at least 30 min before the experiment. • 2. The compound to be tested was dissolved with 0.9% physiological saline at a concentration of 10 mg/ml. According to the body weight of mice, a corresponding volume of the compound was intraperitoneal injected (i.p.), so as to provide the target dose. • 3. The mice after administration were placed in transparent observation boxes, and the behavioral changes of the mice were recorded by video and observed for about one hour. (Note: During the observation period, if a mouse was lying still on the stomach, the mouse was turned over with your hand to check whether the righting reflex (RR) of the mouse disappeared. If it disappeared, the mouse was in the state of anesthesia, the time of anesthesia in the mouse was recorded). • 4. After one hour of observation, the mice were returned to the feeding cage and the observation boxes were wiped with 75% alcohol so that the information left over from the previous round (e.g. animal stool, urine and other odors) would not affect the next test results. Animals were replaced for the next round to continue the experiment.\nMice died after ketamine administration.\nAccording to Rodent Epileptiform Behavior Scale score, Compound 9 induced epileptiform behavior in mice with a maximum score of 3. […] According to the Rodent Epileptiform Behavior Scale score. Compound 41 and 42 induced epileptiform behavior in mice with a maximum score of 1. […] The epileptiform behavior was scored according to the Rodent Epileptiform Behavior Scale score.", "values": [
      {"compound": "Clc1ccccc1[C@]12CCCC[C@H]1OCCN2", "note": "[Compound 43, (4aR,8aR)-4a-(2-chlorophenyl)octahydro-2H-benzo[b][1,4]oxazine hydrochloride]", "behavior during observation": "no obvious abnormalities; also recorded: No abnormal"}
    ]},
    {"target": "T1, human NMDA receptors GluN1 and GluN2A subunits (GluN2A-containing NMDAR) (Homo sapiens, UniProt Q05586+Q12879)", "T1 construct": "expressed in transfected cells; host or cells: HEK293 cells, transient liposome transfection of TRE-GluN1-GluN2A, tTA and pCAG-EGFP", "T1 sequence (Q12879 23-1464, other chains not shown)": "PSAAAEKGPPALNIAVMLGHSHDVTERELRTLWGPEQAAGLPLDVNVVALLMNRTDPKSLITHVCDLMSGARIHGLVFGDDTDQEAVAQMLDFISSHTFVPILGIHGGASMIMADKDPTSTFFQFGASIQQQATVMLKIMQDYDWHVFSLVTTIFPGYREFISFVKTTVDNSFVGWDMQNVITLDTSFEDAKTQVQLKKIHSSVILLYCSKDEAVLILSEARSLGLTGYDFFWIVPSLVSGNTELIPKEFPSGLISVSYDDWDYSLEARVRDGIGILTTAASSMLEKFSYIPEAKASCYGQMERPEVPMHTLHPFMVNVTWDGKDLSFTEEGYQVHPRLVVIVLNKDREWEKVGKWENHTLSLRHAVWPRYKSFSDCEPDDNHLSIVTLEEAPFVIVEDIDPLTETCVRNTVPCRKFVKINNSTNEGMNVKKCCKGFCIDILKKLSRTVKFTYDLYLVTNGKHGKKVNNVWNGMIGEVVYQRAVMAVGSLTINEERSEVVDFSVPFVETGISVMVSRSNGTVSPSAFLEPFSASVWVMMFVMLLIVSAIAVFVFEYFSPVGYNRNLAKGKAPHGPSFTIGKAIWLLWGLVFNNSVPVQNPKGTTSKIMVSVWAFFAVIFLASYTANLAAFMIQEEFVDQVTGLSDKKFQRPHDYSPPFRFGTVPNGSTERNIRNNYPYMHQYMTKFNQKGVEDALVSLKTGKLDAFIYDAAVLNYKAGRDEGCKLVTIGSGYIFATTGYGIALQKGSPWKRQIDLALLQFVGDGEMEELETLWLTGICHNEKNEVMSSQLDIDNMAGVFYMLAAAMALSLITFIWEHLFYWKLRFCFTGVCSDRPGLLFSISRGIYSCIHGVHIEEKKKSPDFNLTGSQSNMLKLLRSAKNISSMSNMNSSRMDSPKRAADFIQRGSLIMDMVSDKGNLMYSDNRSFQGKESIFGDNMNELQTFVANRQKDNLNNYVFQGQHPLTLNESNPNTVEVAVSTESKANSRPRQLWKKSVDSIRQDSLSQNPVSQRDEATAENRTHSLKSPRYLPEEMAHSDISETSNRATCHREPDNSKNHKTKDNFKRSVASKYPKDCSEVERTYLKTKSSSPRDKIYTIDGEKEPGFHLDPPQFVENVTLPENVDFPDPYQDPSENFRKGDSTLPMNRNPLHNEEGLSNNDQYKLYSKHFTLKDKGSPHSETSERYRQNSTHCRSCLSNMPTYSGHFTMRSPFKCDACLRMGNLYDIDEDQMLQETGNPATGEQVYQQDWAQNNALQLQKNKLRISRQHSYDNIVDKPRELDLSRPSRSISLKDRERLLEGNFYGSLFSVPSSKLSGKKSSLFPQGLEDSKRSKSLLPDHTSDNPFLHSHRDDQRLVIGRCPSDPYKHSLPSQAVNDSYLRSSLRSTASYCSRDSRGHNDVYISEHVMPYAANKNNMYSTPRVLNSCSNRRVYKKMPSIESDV", "assay": "cell-based", "details": "not given", "description": "(§1) On the day before transfection, HEK293 cells were seeded in a 24-well plate with a 10 mm glass sheet, which was coated with polylysine in advance to increase the adhesion capacity of the cells. The plate was added with DMEM medium containing 10% FBS and incubated at 37° C., in 5% CO2 incubator. When the cell fusion reached 60%-70% after 18-24 hours, the plasmid cDNAs containing TRE-GluN1-GluN2A of human GluN1 and GluN2A, tTA, and pCAG-EGFP were transfected into HEK293 by liposome transfection (TRE-GluN1-GluN2A:tTA:pCAG-EGFP is 0.2 μg:0.2 μg:0.02 μg). Before transfection, anew DMEM medium was changed and added with 1 μg/mL Dox (doxycycline) to induce stable expression in the medium, and added with 100 μM D-APV and 10 mM MgCl2 to avoid cell excitatory toxicity caused by NMDAR overexpression. Cells with green fluorescence were selected for electrophysiological recording after transfection for about 24 h.\n(§2) A glass plate seeded with HEK293 cells was placed in a recording bath and perfused with the extracellular fluid at a rate of 4 mL/min (NaCl 140 mM, KCl 2.8 mM, HEPES 10 mM, CaCl2 1 mM, glycine 0.1 mM, pH 7.2). The channels of the ALA-VC^3 eight-channel pressure perfusion system were filled with extracellular fluid for washing, extracellular fluid containing glutamic acid (100 μM), and extracellular fluid containing glutamic acid and compound to be tested, respectively, with a drop rate of about 1 drop/sec and 10 μL/drop. HEK293 cells with moderate green fluorescence intensity and good adhesion were selected under a fluorescence microscope for recording. The microglass tube of the perfusion system was placed about ten cells away from the cells to be recorded, and the drug was sprayed to the cell surface under the pressure of air (0.02 MPa). The glass electrode was prepared by drawing with a microelectrode drawing instrument with a resistance of 4-6 MΩ and filled with electrode liquid (CsCl 125 mM, HEPES 10 mM, EGTA 11 mM). The microelectrode manipulator was used to slowly push the glass electrode towards the cells. The electrode was attached to the cell membranes and applied with negative pressure, so that a high-resistance seal of more than 1 GΩ was formed between the electrode tip and the cell membrane, and then negative pressure was given to suck through the cell membrane to form a whole-cell recording mode. After the formation of whole-cell recording mode, the cell membrane potential was clamped at −70 mV. The extracellular fluid containing 100 μM glutamic acid, the extracellular fluid containing 100 μM glutamic acid and the compound to be tested, and the extracellular fluid were sprayed to the cell membrane surface sequentially through the perfusion system for 10 s, 20 s, and 10 s to record the NMDA receptor-mediated current and evaluate the inhibitory effect of the compound on GluN2A-containing NMDAR. The experimental process was controlled by pCLAMP 10.6, and the Digidata 1440A digital-to-analog converter was used to complete the generation of stimulus signal and the acquisition of feedback signal.\n(§3) The ordinate in the figure is the normalized current ratio, which represents the ratio of the current mediated by NMDAR after administration of ketamine and the compound at a concentration of 10 μM to the current mediated by NMDAR before administration. […] Ketamine was used as a positive control.\n(§4) The inhibitory percentages of the compound according to the present disclosure on NMDAR-mediated current=[…]/NMDAR mediated-current before administration*100%.", "units": {"current inhibitory percentages": "%"}, "values": [
      {"compound": "CC1(C)CNC2(c3ccccc3)CCCCC2OC1.Cl", "note": "(centres unmarked) [Compound 20, 3,3-dimethyl-5a-phenyldecahydrobenzo[b][1,4]olanzapine hydrochloride]", "current inhibitory percentages": 64.86}
    ]},
    {"target": "T1, human NMDA receptors GluN1 and GluN2A subunits (GluN2A-containing NMDAR)", "assay": "cell-based", "details": "HEK293, read-out: current inhibitory percentages", "description": "as §1, §2, §3, §4", "units": {"inhibition at 10 µM": "%"}, "values": [
      {"compound": "CC1(C)CCC2OCCNC2(c2ccccc2)C1", "note": "(centres unmarked) [Compound 31, 6,6-dimethyl-4a-phenyloctahydro-2H-benzo[b][1,4]oxazine hydrochloride]", "inhibition at 10 µM": 71.6}
    ]},
    {"target": "T1, human NMDA receptors GluN1 and GluN2A subunits (GluN2A-containing NMDAR)", "assay": "cell-based", "details": "NMDAR-mediated current, HEK293 cells expressing human GluN1/GluN2A, 100 μM glutamic acid, clamped at −70 mV; compound 10 μM; read-out: current inhibitory percentages", "description": "as §1, §2, §3, §4", "units": {"inhibition at 10 µM": "%"}, "values": [
      {"compound": "c1ccc(C23CCCCC2OCCN3)cc1", "note": "(centres unmarked) [Compound 1, 4a-phenyloctahydro-2H-benzo[b][1,4]oxazine hydrochloride]", "inhibition at 10 µM": 115},
      {"compound": "COc1ccccc1C12CCCCC1OCCN2", "note": "(centres unmarked) [Compound 2, 4a-(2-methoxyphenyl)octahydro-2H-benzo[b][1,4]oxazine hydrochloride]", "inhibition at 10 µM": 56},
      {"compound": "Fc1cccc(C23CCCCC2OCCN3)c1", "note": "(centres unmarked) [Compound 3, 4a-(3-fluorophenyl)octahydro-2H-benzo[b][1,4]oxazine hydrochloride]", "inhibition at 10 µM": 21.2},
      {"compound": "Fc1ccc(C23CCCCC2OCCN3)cc1", "note": "(centres unmarked) [Compound 4, 4a-(4-fluorophenyl)octahydro-2H-benzo[b][1,4]oxazine formate]", "inhibition at 10 µM": 83.7},
      {"compound": "Fc1cccc(C23CCCCC2OCCN3)c1F", "note": "(centres unmarked) [Compound 5, 4a-(2,3-difluorophenyl)octahydro-2H-benzo[b][1,4]oxazine formate]", "inhibition at 10 µM": 54.5},
      {"compound": "CC1CCC2OCCNC2(c2ccccc2)C1", "note": "(centres unmarked) [Compound 7, 6-methyl-4a-phenyloctahydro-2H-benzo[b][1,4]oxazine formate]", "inhibition at 10 µM": 86.4},
      {"compound": "CCC1CCC2OCCNC2(c2ccccc2)C1", "note": "(centres unmarked) [Compound 8, 6-ethyl-4a-phenyloctahydro-2H-benzo[b][1,4]oxazine formate]", "inhibition at 10 µM": 28.9},
      {"compound": "Cc1cccc(C23CCCCC2OCCN3)c1", "note": "(centres unmarked) [Compound 10, 4a-(3-methylphenyl)octahydro-2H-benzo[b][1,4]oxazine formate]", "inhibition at 10 µM": 98.3},
      {"compound": "Cc1ccccc1C12CCCCC1OCCN2", "note": "(centres unmarked) [Compound 12, 4a-(2-methylphenyl)octahydro-2H-benzo[b][1,4]oxazine formate]", "inhibition at 10 µM": 33.7},
      {"compound": "Cc1ccc(C23CCCCC2OCCN3)cc1", "note": "(centres unmarked) [Compound 14, 4a-(4-methylphenyl)octahydro-2H-benzo[b][1,4]oxazine formate]", "inhibition at 10 µM": 45.2},
      {"compound": "CC1CCCC2(c3ccccc3)NCCOC12", "note": "(centres unmarked) [Compound 16, 8-methyl-4a-phenyloctahydro-2H-benzo[b][1,4]oxazine formate]", "inhibition at 10 µM": 107},
      {"compound": "CC1CCCC2OCCNC12c1ccccc1", "note": "(centres unmarked) [Compound 17, 5-methyl-4a-phenyloctahydro-2H-benzo[b][1,4]oxazine formate]", "inhibition at 10 µM": 86.6},
      {"compound": "CC1CCC2(c3ccccc3)NCCOC2C1", "note": "(centres unmarked) [Compound 18, 7-methyl-4a-phenyloctahydro-2H-benzo[b][1,4]oxazine formate]", "inhibition at 10 µM": 84.4},
      {"compound": "CN1CCOC2CCCCC21c1ccccc1", "note": "(centres unmarked) [Compound 19, 4-methyl-4a-phenyloctahydro-2H-benzo[b][1,4]oxazine hydrochloride]", "inhibition at 10 µM": 17.8},
      {"compound": "COc1cccc(C23CCCCC2OCCN3)c1", "note": "(centres unmarked) [Compound 21, 4a-(3-methoxyphenyl)octahydro-2H-benzo[b][1,4]oxazine hydrochloride]", "inhibition at 10 µM": 71.5},
      {"compound": "FC(F)(F)Oc1cccc(C23CCCCC2OCCN3)c1", "note": "(centres unmarked) [Compound 22, 4a-(3-(trifluoromethoxy)phenyl)octahydro-2H-benzo[b][1,4]oxazine hydrochloride]", "inhibition at 10 µM": 45.8},
      {"compound": "FC(F)(F)c1ccc(C23CCCCC2OCCN3)cc1", "note": "(centres unmarked) [Compound 23, 4a-(4-(trifluoromethyl)phenyl)octahydro-2H-benzo[b][1,4]oxazine hydrochloride]", "inhibition at 10 µM": 9.25},
      {"compound": "Cc1cccc(C)c1C12CCCCC1OCCN2", "note": "(centres unmarked) [Compound 24, 4a-(2,6-dimethylphenyl)octahydro-2H-benzo[b][1,4]oxazine hydrochloride]", "inhibition at 10 µM": 73.7},
      {"compound": "CC(C)(C)c1ccc(C23CCCCC2OCCN3)cc1", "note": "(centres unmarked) [Compound 25, 4a-(4-(tertbutyl)phenyl)octahydro-2H-benzo[b][1,4]oxazine hydrochloride]", "inhibition at 10 µM": 11.2},
      {"compound": "Clc1cccc(C23CCCCC2OCCN3)c1Cl", "note": "(centres unmarked) [Compound 26, 4a-(2,3-dichlorophenyl)octahydro-2H-benzo[b][1,4]oxazine hydrochloride]", "inhibition at 10 µM": 92},
      {"compound": "CC(C)c1ccccc1C12CCCCC1OCCN2", "note": "(centres unmarked) [Compound 27, 4a-(2-isopropylphenyl)octahydro-2H-benzo[b][1,4]oxazine hydrochloride]", "inhibition at 10 µM": 85.6},
      {"compound": "Cc1ccc(C)c(C23CCCCC2OCCN3)c1", "note": "(centres unmarked) [Compound 28, 4a-(2,5-dimethylphenyl)octahydro-2H-benzo[b][1,4]oxazine hydrochloride]", "inhibition at 10 µM": 87.8},
      {"compound": "Fc1cccc(C23CCCCC2OCCN3)c1Cl", "note": "(centres unmarked) [Compound 29, 4a-(2-chloro-3-fluorophenyl)octahydro-2H-benzo[b][1,4]oxazine hydrochloride]", "inhibition at 10 µM": 85.7},
      {"compound": "Fc1ccc(C23CCCCC2OCCN3)cc1F", "note": "(centres unmarked) [Compound 30, 4a-(3,4-difluorophenyl)octahydro-2H-benzo[b][1,4]oxazine hydrochloride]", "inhibition at 10 µM": 86.6},
      {"compound": "Fc1ccc(Cl)c(C23CCCCC2OCCN3)c1", "note": "(centres unmarked) [Compound 32, 4a-(2-chloro-5-fluorophenyl)octahydro-2H-benzo[b][1,4]oxazine hydrochloride]", "inhibition at 10 µM": 102},
      {"compound": "CCOc1cccc(C23CCCCC2OCCN3)c1", "note": "(centres unmarked) [Compound 33, 4a-(3-ethoxyphenyl)octahydro-2H-benzo[b][1,4]oxazine hydrochloride]", "inhibition at 10 µM": 76.4},
      {"compound": "COc1ccc(C23CCCCC2OCCN3)c(Cl)c1", "note": "(centres unmarked) [Compound 34, 4a-(2-chloro-4-methoxyphenyl)octahydro-2H-benzo[b][1,4]oxazine hydrochloride]", "inhibition at 10 µM": 48.6},
      {"compound": "Fc1cccc(Cl)c1C12CCCCC1OCCN2", "note": "(centres unmarked) [Compound 36, 4a-(2-chloro-6-fluorophenyl)octahydro-2H-benzo[b][1,4]oxazine hydrochloride]", "inhibition at 10 µM": 42.5},
      {"compound": "Cc1cscc1[C@]12CCCC[C@H]1OCCN2", "note": "[Compound 40, (4aR,8aR)-4a-(4-methyl-3-thiophenyl)octahydro-2H-benzo[b][1,4]oxazine hydrochloride]", "inhibition at 10 µM": 89.3}
    ]}
  ]
}
